The target of series [1] is human mitochondrial RNA-dependent RNA polymerase (POLRMT) (Homo sapiens, UniProt O00411). Description: Incorporation of nucleotide analog triphosphates by human mitochondrial RNA polymerase. The series is classed as biochemical. On the procedure: The incorporation of these analogs by human mitochondrial RNA-dependent RNA polymerase (POLRMT) were determined according to Arnold et al. (Sensitivity of Mitochondrial Transcription and Resistance of RNA Polymerase II Dependent Nuclear Transcription to Antiviral Ribonucleotides. PLoS Pathog., 2012, 8, e1003030).
Sequence of human mitochondrial RNA-dependent RNA polymerase (POLRMT) (O00411 42-1230): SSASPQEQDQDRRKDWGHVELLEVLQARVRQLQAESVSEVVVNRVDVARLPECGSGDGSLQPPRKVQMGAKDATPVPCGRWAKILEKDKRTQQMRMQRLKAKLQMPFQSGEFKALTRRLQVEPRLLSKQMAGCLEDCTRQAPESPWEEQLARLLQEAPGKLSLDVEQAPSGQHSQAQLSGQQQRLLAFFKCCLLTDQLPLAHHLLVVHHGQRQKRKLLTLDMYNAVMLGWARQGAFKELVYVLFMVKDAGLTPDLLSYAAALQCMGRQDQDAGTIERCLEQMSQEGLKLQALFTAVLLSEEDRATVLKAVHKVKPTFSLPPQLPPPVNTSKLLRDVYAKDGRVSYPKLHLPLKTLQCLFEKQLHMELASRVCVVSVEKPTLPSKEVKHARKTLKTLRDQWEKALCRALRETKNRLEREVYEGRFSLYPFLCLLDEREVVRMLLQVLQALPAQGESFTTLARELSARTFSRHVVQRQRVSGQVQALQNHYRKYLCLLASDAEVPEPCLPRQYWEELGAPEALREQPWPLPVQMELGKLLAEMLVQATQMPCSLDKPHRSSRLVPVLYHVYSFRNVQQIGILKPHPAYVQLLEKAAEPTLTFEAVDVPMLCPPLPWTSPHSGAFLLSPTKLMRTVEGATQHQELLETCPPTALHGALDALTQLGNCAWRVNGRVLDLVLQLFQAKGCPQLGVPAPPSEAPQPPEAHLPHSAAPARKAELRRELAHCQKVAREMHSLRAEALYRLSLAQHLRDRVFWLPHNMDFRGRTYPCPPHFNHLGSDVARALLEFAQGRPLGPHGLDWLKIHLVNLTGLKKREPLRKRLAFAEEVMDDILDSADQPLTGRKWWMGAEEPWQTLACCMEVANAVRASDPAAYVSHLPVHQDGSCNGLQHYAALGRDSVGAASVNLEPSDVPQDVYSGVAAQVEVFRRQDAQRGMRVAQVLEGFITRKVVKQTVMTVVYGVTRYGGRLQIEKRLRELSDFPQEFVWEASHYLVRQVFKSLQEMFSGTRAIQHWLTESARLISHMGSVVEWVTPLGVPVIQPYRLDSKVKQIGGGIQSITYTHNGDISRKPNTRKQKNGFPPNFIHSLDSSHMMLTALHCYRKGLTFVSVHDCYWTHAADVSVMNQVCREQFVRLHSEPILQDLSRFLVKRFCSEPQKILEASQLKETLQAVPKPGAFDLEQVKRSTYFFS

A short description of series [2]: Head-to-head comparison of plasma levels in dogs dosed with Compound 1 and Compound 2. The following applies: dosed Compound 1 25 mg/kg or Compound 2 30 mg/kg, normalized to a dose of 25 mg/kg. The format is in vivo, dog. The method, then:
A head-to-head comparison of dogs dosed with Compound 1 and Compound 2 was conducted.

A short description of series [3]: Plasma profiles of Compound 2 metabolites in rats. Conditions: male, Sprague-Dawley, rat, plasma, po, 500 mg/kg. The method, then: The results for a single 500 mg/kg dose in rats is shown in FIG. 17 and the results for a single 30, 100, or 300 mg/kg dose in monkeys is shown in FIG. 18.
A short description of series [4]: Plasma profiles of Compound 2 metabolites in monkeys. The format is in vivo, cynomolgus monkeys. Conditions: cynomolgus monkey, plasma, po.
For series [5], the system named is replicons containing the NS5B sequences from HCV patient plasma samples (GT1a, 1b, 2a, 2b, 3a-1, 3a-2, 4a and 4d). Kind of series: Replicons containing NS5B sequences from HCV patient plasma samples (clinical isolates). The format is cell-based. The following applies: clinical isolates of GT1, GT2, GT3, and GT4, FIG. 24. On the technique in general: Replicon systems follow genome replication, usually without infectious particles.

Series [6] in a line: Single ascending dose study of Compound 2 in healthy volunteers (Part A): safety, tolerability, pharmacokinetic. The format is in vivo, human. Conditions: both sexes, human, in vivo. On the procedure:
Compound 2 was tested in a single ascending dose (SAD) study to measure its safety, tolerability, and pharmacokinetic in healthy subjects (Part A). Part A was a randomized, double-blind, placebo-controlled SAD study. Healthy subjects in Part A received a single dose of Compound 2 or placebo in the fasting state. Subjects were confined to the clinic from Day −1 to Day 6.
Dosing in each cohort was staggered such that 2 subjects (1 active:1 placebo) were evaluated for 48 hours after dosing before the remainder of the cohort was dosed. Each cohort received Compound 2 in ascending order. Dosing of sequential cohorts occurred based on review of available safety data (through Day 5) and plasma pharmacokinetic data (through 24 h) of the prior cohort.
As pharmacokinetic and safety data emerged from prior cohorts, doses evaluated in Cohorts 3a-4a were adjusted by increments no more than 100 mg.
Healthy volunteers in the Part A portion of the study were male and female subjects between the ages of 18 and 65. Active and placebo recipients were pooled within each Part A cohort to preserve the study blind.
(§1) Pharmacokinetic of Compound 1 and nucleoside metabolite 1-7 were measured following the single dose of Compound 2. […] Values are reported as mean±SD, except or Tmax where median (range) is reported.

Series [7] can be described thus: Single ascending dose study of Compound 2 in GT1-HCV infected patients (Part B): safety, tolerability, pharmacokinetic. The format is in vivo, human. The following applies: for AUC / Cmax / half-life: mean±SD. The method, then:
Subjects in Part B received a single dose of Compound 2 in the fasting state. Patients were confined to the clinic from Day −1 to Day 6.
Part B was initiated after the safety (through Day 5) and plasma pharmacokinetic (through 24 h) data review from Cohort 3a in Part A. Available safety data (through Day 5) and pharmacokinetic data (through 24 h) was reviewed for the first cohort in Part B (Cohort 1b) before enrolling subsequent Part B cohorts. Subsequent Part B cohorts were only dosed following review of available safety and pharmacokinetic data from the respective doses in Part A as well as available safety (through Day 5) from the prior Part B cohorts.
Patients infected with HCV were treatment-naïve, non-cirrhotic GT1-infected subjects with a viral load of ≥5 log10 IU/mL.
as §1
Plasma exposure of Compound 1 was dose-related while exposure of metabolite 1-7 was dose-proportional.

A short description of another series: in vitro. The following applies: rat.
Series [8] can be described thus: Solubility in biorelevant test medias (water, SGF, FaSSIF, FeSSIF).
For series [9] the following is noted: sofosbuvir 400 mg QD; cited from earlier work.
A further series concerns HCV RNA (GT1a HCV). The following applies: after 1 day of 400 mg monotherapy, GT1a HCV-infected subjects; cited from earlier work.
[10] abbreviates: incorporation by human mitochondrial RNA polymerase.
[11] abbreviates: human, in vivo, 100 mg, GT1-HCV infected patients, Compound 2 100 mg.
Where [12] appears, read: human, in vivo, 300 mg, GT1-HCV infected patients, Compound 2 300 mg (first 300 mg line).
The mark [13] stands for this setting: human, in vivo, 300 mg, GT1-HCV infected patients, Compound 2 300 mg (second 300 mg line).
The mark [14] stands for this setting: human, in vivo, 400 mg, GT1-HCV infected patients, Compound 2 400 mg.
The mark [15] stands for this setting: human, in vivo, 600 mg, GT1-HCV infected patients, Compound 2 600 mg.

A value given as a limit tells only on which side of the number the result lay.

`C[C@@]1(O)[C@H](O)[C@@H](COP(=O)(O)OP(=O)(O)OP(=O)(O)O)O[C@H]1n1cnc2c(=O)[nH]c(N)nc21` [2'-C-methyl GTP] showed a Kpol in series [1] (setting [10]) of 0.051 s⁻¹.

For `CC1(F)C(O)C(COP(=O)(O)OP(=O)(O)OP(=O)(O)O)OC1n1ccc(=O)[nH]c1=O` (stereo not shown) [2’-deoxy-2’-F-2’-C-methyl UTP], in series [1] (setting [10]), the Kpol came out at 0.00034 s⁻¹.

By AUC(0-t) is commonly meant the area under the concentration-time curve up to a stated or last time point. By Cmax is commonly meant the highest concentration seen after dosing. What is called AUC is the area under the concentration-time curve, a measure of exposure. One may read the half-life as the time needed for the level to fall by half in the phase considered. Read a high half-life as slow decline. In the case of `CNc1nc(N)nc2c1ncn2[C@@H]1O[C@H](CO[P@@](=O)(N[C@@H](C)C(=O)OC(C)C)Oc2ccccc2)[C@@H](O)[C@@]1(C)F` [Compound 1, isopropyl((S)-(((2R,3R,4R,5R)-5-(2-Amino-6-(methylamino)-9H-purin-9-yl)-4-fluoro-3-hydroxy-4-methyltetrahydrofuran-2-yl)methoxy)(phenoxy)phosphoryl)-L-alaninate], the “Mean Dose-normalized AUC(0-4hr) for Compound 1” value in series [2] was 0.2 µM·h. Besides, the AUC(0-t) turned out to be 78.2 ng·h/mL in series [3], 176 ng·h/mL in [4] (30 mg/kg), 1100 ng·h/mL in [4] (100 mg/kg) and 1600 ng·h/mL in [4] (300 mg/kg). Further, the Cmax in series [3] was determined as 60.8 ng/mL; in series [4] (30 mg/kg), 63.5 ng/mL; in series [4] (100 mg/kg), 783 ng/mL; in series [4] (300 mg/kg), 501 ng/mL; in series [6] (50 mg) it was 46.4 ± 17.6 ng/mL; in series [6] (100 mg) it was 156 ± 96.3 ng/mL. In addition, the Cmax in series [6] (200 mg) was 818 ± 443 ng/mL; in series [6] (400 mg), 1190 ± 401 ng/mL; in [7] (setting [11]) it was 212 ± 32 ng/mL; in series [7] (setting [12]), 871 ± 590 ng/mL; in series [7] (setting [13]), 2280 ± 893 ng/mL; in series [7] (setting [14]) it was 2680 ± 2110 ng/mL. In series [7] (setting [15]), the Cmax was 3540 ± 1650 ng/mL. The Tmax in series [3] is 15 min; in series [4] (30 mg/kg), 30 to 120 min; in series [4] (100 mg/kg), 60 to 120 min; in series [6] (50 mg) it was 30 min; in series [6] (100 mg) it was 30 min; in series [6] (200 mg) it was 30 min. Further, the Tmax in series [6] (400 mg) is 30 min; in series [7] (GT1-HCV infected patients, Compound 2 300 mg (second 300 mg line), median (range)), 0.5 (0.5-1.0) h; in series [7] (human, in vivo, 100 mg, read-out: Tmax), 30 min; in series [7] (human, in vivo, 300 mg, read-out: Tmax) it was 30 min; in [7] (human, in vivo, 400 mg, read-out: Tmax), 60 min; in [7] (human, in vivo, 600 mg, read-out: Tmax), 60 min. The EC95 result in series [5] is “less than 25 ng/mL”. For the same compound, the AUC in [6] (50 mg) worked out at 36.4 ± 12.3 ng·h/mL; in series [6] (100 mg), 167 ± 110 ng·h/mL; in series [6] (200 mg) it was 656 ± 255 ng·h/mL; in series [6] (400 mg) it was 1110 ± 326 ng·h/mL; in series [7] (setting [11]), 179 ± 54.4 ng·h/mL; in series [7] (setting [12]) it was 818 ± 475 ng·h/mL. Also, the AUC in series [7] (setting [13]) came out at 1860 ± 1020 ng·h/mL; in series [7] (setting [14]), 2410 ± 1010 ng·h/mL; in series [7] (setting [15]), 4130 ± 1130 ng·h/mL. The half-life was 19.2 ± 1.2 min in [6] (50 mg); 31.8 ± 14.4 min in series [6] (100 mg); 42.6 ± 9.6 min in series [6] (200 mg); 51.6 ± 9 min in series [6] (400 mg); 32.4 ± 7.2 min in series [7] (setting [11]); 38.4 ± 12 min in series [7] (setting [12]). The half-life in series [7] (setting [13]) is 50.4 ± 10.8 min; in series [7] (setting [14]), 51.6 ± 10.8 min; in series [7] (setting [15]), 42 ± 7.8 min; in “in vitro” it was under 2 min. In addition, the “Appearance in solubility test” value in series [8] (FaSSIF) is recorded as “Turbid”; in series [8] (FeSSIF), “Turbid”; in [8] (SGF), “Clear Solution”; in [8] (Water) it was “Clear Solution*”. Further, the Solubility descriptive term result is recorded as “Slightly Soluble” in series [8] (FaSSIF), “Slightly Soluble” in series [8] (FeSSIF), “Sparingly” in series [8] (SGF) and “Slightly Soluble” in series [8] (Water).

For `C[C@@]1(F)[C@H](O)[C@@H](COP(=O)(O)OP(=O)(O)OP(=O)(O)O)O[C@H]1n1cnc2c(=O)[nH]c(N)nc21` [Metabolite 1-6], the “Incorporation of active triphosphate by human mitochondrial RNA polymerase” value in series [1] is “poorlyincorporated”. For the same compound, the “Relative Efficiency” value in [1] ((Kpol/Kd,app)analog nucleotide/(Kpol/Kd,app)natural nucleotide) was 2.2 × 10^−6. In addition, in series [1] (setting [10]), the Kpol was 0.0017 s⁻¹ and the “Kpol/Kd,app” value is 8.3 M⁻¹ s⁻¹. Also, in [1] (incorporation by human mitochondrial RNA polymerase, read-out: Kd,app), the Kd came out at 204 µM.

Take `CC(C)OC(=O)[C@H](C)N[P@](=O)(OC[C@H]1O[C@@H](n2ccc(=O)[nH]c2=O)[C@](C)(F)[C@@H]1O)Oc1ccccc1` [sofosbuvir]: the “Steady-state trough concentration (C24,ss) of the nucleoside metabolite” value in [9] is on record as “approximately 100 ng/mL”. Moreover, the “HCV RNA reduction” value in the series on HCV RNA (GT1a HCV) was 2 log10 IU/mL.

Source of the values: patent US20210087217A1, “NUCLEOTIDE HEMI-SULFATE SALT FOR THE TREATMENT OF HEPATITIS C VIRUS” (Atea Pharmaceuticals, Inc., priority 2017, published 2021).
